Results: US7297505B2, “Use of MDCK cell line to predict corneal penetration of drugs” (Alcon, Inc., priority 2004, dated 2007)

Experiments:
[1] = test system: MDCK(MDR) monolayers; assay: in vitro; details: MDCK-MDR1
Description: (§1) The present invention is directed to the use of a new in vitro model for evaluating the ability of a drug molecule to penetrate the cornea. The model involves the use of MDCK cell permeability values to predict the ability of drug molecules to penetrate the cornea. The MDCK permeability values of drug molecules can be determined by means of known methods, such as the methods described in the following scientific articles: • 1. Horio, M, Pastan, I, Gottesman, M M, and Handler, J S. Transepithelial transport of vinblastine by kidney-derived cell lines. Application of a new kinetic model to estimate in situ Km of the pump. […] Pan, B F, Dutt, A, and Nelson, J A. Enhanced transepithelial flux of cimetidine by Madin-Darby canine kidney cells overexpressing human P-glycoprotein. […] The entire contents of the above-cited references relating to methods for determining MDCK permeation values for drug molecules are hereby incorporated in the present specification by reference. […] Various commercial scientific laboratories may be utilized to obtain MDCK permeation values (e.g., Absorption Systems, Exton, Pa., USA).
(§2) In vitro MDCK cell permeability. Permeability and transport studies were conducted and the data were analyzed at Absorption Systems, Exton, Pa., using methods previously described.^12,13 MDCK(MDR) monolayers were grown to confluence on collagen-coated, microporous, polycarbonate membranes in 12-well Costar Transwell plates. To ensure monolayer integrity, the trans epithelial electrical resistance (TEER) was measured. […] The permeability assay buffer was Hank's Balanced Salt Solution containing 10 mM HEPES and 15 mM glucose at a pH of 7.0-7.2. Permeability through a cell-free (blank) membrane was studied to determine non-specific binding and free diffusion of the test article through the device. […] At each time point, 1 and 2 hours, a 200-μL aliquot was taken from the receiver chamber and replaced with fresh assay buffer. Cells were dosed on the apical side [apical-to-basolateral, absorptive transport, […]] or basolateral side [basolateral-to-apical, secretory transport, (B-A)] and incubated at 37° C. with 5% CO2 and 90% relative humidity. Each determination was performed in duplicate. Lucifer Yellow permeability was measured for each monolayer after the experiment, to ensure that the cell monolayer integrity and viability was not compromised by the test article.
(§3) To determine the transport of compounds in the absence of functional P-gp activity, the above experimental conditions were used but in the presence of the P-gp inhibitor cyclosporin A (CSA).^14 For the studies using CSA, cells were pre-incubated for 30 minutes with the inhibitor (10 μM) and washed; during the permeation determination period CSA (10 μM) was present on both sides of the membrane. The Papp A-B determined in the presence of CSA was taken as an estimate of the permeability attributed to passive diffusion for the compound (Papp PD).

[2] = test system: P-gp (MDR1); assay: in vitro; details: dog, MDCK-MDR1
Description: as §1, §2, §3

[3] = Ex vivo corneal penetration (perfusion chamber); type: in vitro ADME; details: rabbit; Table 2; read-out: Ex vivo Rabbit Corneal Permeability, Papp nm/s
Procedure: The intact eyes, along with the lids and conjunctival sacs were then enucleated and immediately stored in about 70 ml of fresh BSS PLUS® Sterile Irrigating Solution (Alcon Laboratories, Inc.) saturated with O2/CO2 (95:5). Within one hour, corneas were mounted in the modified perfusion chamber as described by Schoenwald and Huang (G1). BSS PLUS® solution was used as the receiving and rinsing solution throughout the perfusion experiments. Steady-state conditions were used in order to determine the apparent permeability coefficients. After mounting the corneas in the chamber, 7.5 mls of BSS PLUS® solution was added to the receiving chamber (endothelial side of the cornea). Then, 7 mls of 0.1 mMole solutions of each fluoroquinolone prepared in BSS PLUS® solution was added into the donor chamber (epithelial side of the cornea). Throughout the experiment, both solutions were bubbled continuously with O2/CO2 (95:5) at the rate of about one bubble per second. This provides mixing of the solution in each chamber, oxygenation of the cornea, and pH control. Samples (0.15 ml) were withdrawn from the receiving chamber at 30 min intervals over a period of five hours. BSS PLUS® solution (0.15 ml) was added back to the receiving chamber after each withdrawal to compensate for loss of volume.
At the end of each permeability experiment, The final volume of the receiving chambers was noted, and the viability of the corneas was assessed by determining their hydration level: The corneas were trimmed of excess scleral tissue and conjunctiva, blotted, weighed, dried overnight at room temperature under vacuum over phosphorus pentoxide, and then re-weighed.
C is the steady state measured concentration of […] in the donor solution in units of μg/ml or ppm; and 60 is the conversion of minutes to seconds.

[4] = test system: cornea; assay: Predicted corneal permeability from MDCK permeability by statistical model; details: Corneal Permeability=5.41(MDCK Permeability)−0.01(MDCK Permeability)^2; in nm/s
Description: The method of the present invention comprises the following steps: (1) determining the MDCK permeation value for a drug molecule; and (2) entering said value in a suitable linear or quadratic statistical model to calculate a predicted corneal permeability value for said molecule. The statistical model is created by obtaining MDCK permeation values and corneal penetration values for at least two representative drug molecules, plotting those values on a graph and deriving a linear or quadratic statistical model from the graph.

Compound	MDCK^2 [1]	Papp at 10 μM [2] [×10⁻⁶ cm/s]	Papp at 5 h, 0.1 mMole [3] [×10⁻⁶ cm/s]	Predicted Corneal Permeability [4]	Post experiment Lucifer Yellow permeability in monolayers [1]
O=C1CC2(CCCC2)CC(=O)N1CCCCN1CCN(c2ncccn2)CC1 [Buspirone]	105625	32.5	66.5	675.82	
C[C@@H]1C[C@H]2[C@@H]3CCC4=CC(=O)C=C[C@]4(C)[C@@]3(F)[C@@H](O)C[C@]2(C)[C@@]1(O)C(=O)CO [Dexamethasone]	1428.84				
Nc1cc(Cl)c(N=C2NCCN2)c(Cl)c1 [Apraclonidine]	14.44	0.38	3.8	19.58	
CC[C@@H]1C(=O)OC[C@@H]1Cc1cncn1C [Pilocarpine]	1354.24	3.68	9.8	177.99	
CC(C)NCC(O)COc1ccc(CCOCC2CC2)cc1 (stereo not drawn) [Betaxolol]	40804	20.2	60	657.76	
CC(C)(C)NC[C@H](O)COc1nsnc1N1CCOCC1 [Timolol]	1149.21	3.39	24	164.91	
O=C1OC2(c3ccc(O)cc3Oc3cc(O)ccc32)c2ccccc21 [Fluorescein]	43.56	0.66	16	33.83	
NC(=O)Cc1cccc(C(=O)c2ccccc2)c1N [Nepafenac]	32761	18.1	74	625.74	
Lucifer Yellow					0.24-0.75 ×10^−6 cm/s
